Assay results: publication PMC3651166, “Differential Cytotoxic Activity of a Novel Palladium-Based Compound on Prostate Cell Lines, Primary Prostate Epithelial Cells and Prostate Stem Cells” (PLoS ONE, 2013)

Legend:
[1] = tested on: PNT2-C2, BPH-1, P4E6, PC-3 and LNCaP; assay: Flow cytometry cell cycle analysis, cell lines; type: cell-based, human; details: PNT2-C2, PC3 and LNCaP cell lines, 48 h post-treatment
Experimental: (§1) Following drug treatment, floating cells in the media were pooled with adherent cells, which were collected by trypsinisation. Following centrifugation cells were resuspended in 0.5 ml PBS. Cells were fixed in 2 ml ice cold 70% ethanol, which was added in a dropwise fashion while vortexing. Cells were incubated on ice for 30 min then washed in 5 ml PBS and resuspended in 0.4 ml PBS. Following storage at 4°C overnight, 50 µl of RNAse (1 mg/ml) and 50 µl of propidium iodide (1 mg/ml) were added to the cells. Following incubation at 37°C for 30 min the cells were analysed for 2N and 4N DNA content on a flow cytometer (Cyan ADP Analyser, Beckman Coulter).

[2] = tested on: primary prostate epithelial cells; assay: Flow cytometry cell cycle analysis, primary cells; type: cell-based, human; details: primary prostate epithelial cells, 48 h post-treatment
Experimental: as §1

[3] = tested on: cleaved caspase-3; assay: Western blotting for apoptosis, cell lines; type: cell-based, human; details: BPH-1, PNT2-C2 and P4E6 cells
Experimental: (§2) Following drug treatment, cell lysates were harvested using Cytobuster Protein Extraction Reagent (71009, EMD Millipore, Darmstadt, Germany) with protease inhibitors (cOmplete, EDTA-free Protease Inhibitor Cocktail Tablets, Roche Applied Science, UK). 20 µg of protein extract were loaded on 12% SDS-PAGE gels and wet-transferred to a PVDF membrane. Antibodies used include: monoclonal anti-β-actin 1∶5000 (A5316, Sigma-Aldrich), anti-LC3B 1∶3000 (Ab51520, abcam), cleaved caspase-3 (Asp175) 1∶1000 (9661S, Cell Signaling Technology) and secondary antibodies were Rabbit anti-mouse-HRP 1∶10000 (P0260, Dako) and anti-rabbit IgG HRP-linked 1∶5000 (Cell Signaling Technology Inc. 7074S). Kaleidoscope protein marker was run on each gel (161-0324, Bio-Rad).

[4] = tested on: LC3-II; assay: Western blotting for autophagy, cell lines; type: cell-based, human; details: BPH-1, PNT2-C2 and P4E6 cells
Experimental: as §2

[5] = tested on: LC3-II; assay: Western blotting and immunofluorescence for autophagy, primary cells; type: cell-based, human; details: all primary cells
Experimental: γH2AX staining: Cells were seeded onto 8-well collagen I-coated chamber slides. […] After blocking of non-specific binding with 2% BSA in PBS with 1% goat serum for 1 hour at RT, primary antibody (anti-phospho-histone H2A.X (Ser139), clone JBW301, Millipore, Cat no. 05–636) at 1∶1000 dilution was added in 3% BSA in PBS at 4°C overnight followed by three washes in 0.5% BSA in PBS with 0.175% Tween 20. Following incubation with secondary antibody (Goat anti-mouse Alexa Fluor 568, Invitrogen, Cat no. A-11004) at 1∶1000 dilution for 45 min in 3% BSA in PBS and three more washes in the same washing buffer, the slides were mounted using Vectashield with DAPI (Vector Laboratories, Cat no. H-1200). LC3-B staining: Cells were treated as above then fixed with 4% paraformaldehyde, followed by an incubation in 0.3% Triton X-100. After blocking with 10% normal goat serum, cells were incubated in anti-LC3B 1∶200 (Ab51520, abcam) diluted in 0.1% Triton X-100 in PBS. Secondary antibody was Alexa Fluor 568 goat anti-rabbit IgG 1∶1000 (Invitrogen A11011).

[6] = tested on: stem cells (SCs), transit-amplifying cells (TAs) and committed basal cells (CBs); assay: ATP viability assay on fractionated primary cells; type: cell-based; details: 25 µM, ATP assay, not statistically significant
Experimental: Epithelial cells from human tumour or BPH materials were cultured for several weeks and the cells treated at very low passages. The cultured basal cell population were trypsinized, resuspended in SCM and then plated on BSA-blocked collagen I-coated plates. […] The cells that attached to substratum were trypsinised, resuspended in MACs buffer and incubated with CD133-microbeads (Cat no. 130-050-801, Miltenyi Biotec Inc., Auburn, CA, USA). MACs MS columns (Cat no. 130-042-201, Miltenyi Biotec Inc., Auburn, CA, USA) were used to select the CD133^+ and CD133^− cells. Finally, the three cell populations were obtained: stem cells (SCs) - α2β1integrin^hi/CD133^+, transit-amplifying cells (TAs) - α2β1integrin^hi/CD133^− and committed basal cells (CBs) - α2β1integrin^lo.
This assay was employed for the bioluminescent determination of the adenosine 5′-triphosphate (ATP) released from fractionated living cells (cancer stem cells, transit amplifying cells and committed basal cells). As ATP is rapidly degraded in dead cells, high intracellular levels provide a selective assay for living cells. The ATP-bioluminescent somatic cell assay kit (FLASC, Sigma-Aldrich, Saint Louis, MO, USA) was used with protocol modifications. Briefly, 50–500 cells per well were seeded in a collagen-coated 96 well plate in triplicate. After treating cells for 72 h, 150 µL of medium was removed from each well. 50 µL of cell extraction reagent was added into each original well. Following 20 min incubation at RT, 50 µL of cell extract was transferred to a white 96-well plate. Finally, 50 µL of ATP assay mix solution was added into the wells and luminescence was read using a plate reader (PolarStar Optima, BMG Labtech, UK). Percent viability was calculated using the formula (% Viability = [(Sample RLU/Control RLU)]x100 where RLU refers to relative light units.

[7] = tested on: breast cancer cells; parameters: method as in PMID 21885165; details: in vitro and in vivo; cited from earlier work

Row | SMILES | cell cycle effect [1] | cell cycle effect [2] | cleaved caspase-3 (apoptosis) [3] | LC3-II expression (autophagy) [4] | LC3-II (autophagy) [5] | viability of SCs versus TA and CB cells after treatment [6] | anti-growth activity [7]
1 | N.N.[Cl][Pt][Cl] [Cisplatin, reference compound] | S phase arrest | S phase arrest | clear induction of cleaved caspase-3 | did not significantly change levels of LC3-I and LC3-II | no significant change in LC3-I or LC3-II levels | – | –
2 | COc1cc([C@@H]2c3cc4c(cc3[C@@H](O[C@@H]3O[C@@H]5CO[C@@H](C)O[C@H]5[C@H](O)[C@H]3O)[C@H]3COC(=O)[C@H]23)OCO4)cc(OC)c1O [Etoposide, reference compound] | S phase arrest | S phase arrest | clear induction of cleaved caspase-3 | did not significantly change levels of LC3-I and LC3-II | – | SCs appeared to have increased viability compared to TA and CB cells | –
3 | O.O.O.O.O=C1[N-]S(=O)(=O)c2ccccc21.O=C1c2ccccc2S(=O)(=O)[N]1[Pd+].c1ccc(-c2cccc(-c3ccccn3)n2)nc1 [[Pd(sac)(terpy)](sac)·4 H2O] | – | – | – | – | – | – | powerful anti-growth activity
